# Source: publication PMC8344021, “Discovery of Small Molecule Bak Activator for Lung Cancer Therapy” (Theranostics, 2021)
# What was measured:
# [1] = test system: LSL-KRAS G12D LKB1 fl/fl (KL) mice lung tumors; assay: Mutant KRAS-driven lung cancer GEMM (KL mice); format: in vivo, mouse; settings: 15 mg/kg/d i.p.
# Procedure: LSL-KRAS^G12D LKB1^fl/fl (KL) were generated as previously described [30]-[33]. All studies were performed on protocols approved by the Emory University IACUC. Six weeks after cre-adenovirus infection, KL mice were treated with BKA-073 intraperitoneally (i.p) for 48 days. Mice were euthanized with CO2 asphyxiation. After lung perfusion with PBS, the left lung lobes were harvested from mice in control and BKA-073 treated groups and immediately fixed in 10% neutral buffered formalin (Fisher Scientific, Kalamazoo, MI), horizontally cut into three equal parts and embedded in paraffin blocks. Three parts of lung tissues representing different regions of the lung were vertically put into paraffin blocks for hematoxylin-eosin (H&E) staining. Lung tissue samples were sectioned at 3 µm three times for placement of slides and stained with H&E. H&E stained samples were scanned using Nano Zoomer 2.0-HT (Hamamatsu, Japan) and images were analyzed using ImageScope viewing software (Leica Biosystems, Buffalo Grove, IL). Tumor numbers were counted under a microscope and tumor area was quantified using Openlab modular imaging software (PerkinElmer, Waltham, MA) as previously described, [32].
# KRAS is the most commonly mutated oncogene, yet no effective targeted therapies exist for KRAS-mutant cancers. […] Since BKA-073 is able to induce apoptosis by activation of Bak via facilitating its oligomerization in vitro and in vivo (Figures 1, 2 and 4), we were interested in testing whether BKA-073 is effective for the treatment of mutant KRAS-driven cancer. To assess the potency of BKA-073 in KRAS mutant-driven lung cancer, lox-stop-lox (LSL)-KRAS^G12D LKB1^fl/fl (i.e. KL) mice were generated and bred out as previously described, [31], [50], [51]. These mice contain a KRAS^G12D LSL knock-in allele and a floxed allele of LKB1 (LKB1^fl/fl), [31]. Primary lung adenocarcinoma was detectable as early as 6 weeks after intranasal administration of 5×10^6 pfu adenovirus expressing Cre recombinase (AdeCre) in KRAS^G12D LKB1^fl/fl (KL) mice. […] After treatment for 48 days, KL mice were euthanized with CO2 asphyxiation. Lungs with tumor and normal lung tissues were collected for further analysis. To quantify tumor burden and tumor multiplicity in mice, H&E-stained lungs were imaged with morphometric software to quantify the surface area composed of tumor as opposed to normal tissue of representative cross-sections of each lung lobe for each mouse as previously described [31]-[33]. […] There were 4 deaths out of 6 mice in the control group versus 2 death out of 6 mice in the BKA-073 treatment group […], calculated up to 48 days before euthanization.
# [2] = test system: DMS114 xenografts; assay: SCLC DMS114 xenografts, tumor growth; format: in vivo, Nu/Nu nude mice; settings: 15mg/kg/d i.p., 2-4 weeks
# Procedure: Six-week-old female Nu/Nu nude mice were purchased from Envigo (Indianapolis, IN) and housed under pathogen-free conditions in microisolator cages. The animal propagation protocol was approved by the Emory Institutional Animal Care and Use Committee (IACUC) and the Emory Animal Ethics Committee. 3×10^6 lung cancer cells were injected into subcutaneous tissue in the flank region of nude mice. The tumors were allowed to grow to an average volume of 150~200 mm^3 prior to initiation of therapy as previously described, [29]. Patient-derived xenografts (PDXs, TKO-002 and TKO-005) were established as part of an IRB-approved phase II co-clinical trial of arsenic trioxide in patients with relapsed SCLC who had failed standard platinum-based chemotherapy. Tumor samples were obtained by image-guided biopsy and were directly implanted into Nu/Nu nude mice without intervening propagation in plastic culture plates. Direct serial propagation of growing tumor occurred for up to 5 generations. The animal propagation protocol was approved by the Emory IACUC and the Emory Animal Ethics Committee. Mice with SCLC and NSCLC xenografts or PDXs were treated with BKA-073 intraperitoneally (i.p.) or venetoclax orally as indicated. During treatment, tumor volume (V) was measured by caliper measurements once every two days as described previously. Mice were euthanized by CO2 inhalation at the end of treatment. […]
# [3] = test system: NSCLC and SCLC cell lines; assay: Dynamic BH3 profiling in panel of NSCLC and SCLC cell lines; format: cell-based, human; settings: 1μM, 16h
# Procedure: DBP using Bim peptide was carried out as described previously [24]-[26]. After treatment with BKA-073, venetoclax (ABT-199) or DMSO control for 16h, cells were collected, washed and resuspended at 2 x 10^6 cells/ mL in mannitol experimental buffer (MEB) [150 mM D-mannitol, 10 mM HEPES-KOH (pH 7.5), 50 mM KCl, 20 μM EGTA, 20 μM EDTA, 0.1% BSA, and 5 mM succinate] as described. One volume of the 4x cell suspension was added to one volume of a 4x dye solution containing 4 μM JC-1, […] oligomycin, 0.02% digitonin, 20mM β-mercaptoethanol in MEB. The 2x cell/dye mixture was allowed to rest for 5-10 min at room temperature to allow for permeabilization and JC-1 staining. A total of 15μl of the 2x cell/dye mixture was loaded into a 384-well plate that contained 15µL of Bim BH3 peptide (0.03, 0.1, 0.3, 1, and 3 μM) in MEB, shaken for 15 s inside the reader, and the fluorescence at 590 nm monitored every 5 min for 180 min at 32 °C. The dynamic BH3 profile (∆ % Priming) was calculated as described [24]-[26].
# Figure 1 Discovery of small molecule BKA-073 as a lead compound that targets BH3 domain of Bak and induces mitochondrial priming and apoptosis in lung cancer cells. (A) Schematic illustration of screening strategies used to identify the lead Bak agonist BKA-073 and its chemical structure. […] (C) Expression levels of Bak were analyzed by Western blot in NSCLC and SCLC cell lines. […]
compound,measurement,setting,value
COc1ccc2nc3ccccc3c(NCCNCC(C)O)c2c1 (stereo not drawn) [BKA-073],tumor burden in the lung,[1]; 48 days,significant reduction
same,tumor multiplicity in the lung,[1]; 48 days,significant reduction
same,deaths out of 6 mice,"[1]; up to 48 days, control 4 of 6, p < 0.01",2
same,survival,[1]; vs control group,significantly prolonged survival
same,tumor growth,[2],potently suppressed tumor growth
same,induction of mitochondrial priming,[3],potently induced
